Key:
C57BL/6J ob/ob mice = experiment: Glucose lowering activity of halofenate analogs in ob/ob mice (Example 12); assay type: in vivo; conditions: for Predose Glucose: baseline before dosing
[1] = Plasma hydrolysis of (−) CPTA prodrug esters in human plasma (Example 21); assay type: in vitro ADME; conditions: human plasma (heparinized, pooled), 125 or 250 μM, 37° C., hydrolysis to (−) CPTA; read-out: Plasma T1/2 (converted)
Description: This example illustrates the plasma hydrolysis of various prodrug esters of the (S)-enantiomer of CPTA at physiological conditions. Hydrolysis was monitored and analyzed by HPLC. The hydrolytic product was identified by comparison to authentic (−) CPTA and the hydrolytic rates were calculated. [drawing 83]
Human plasma (heparinized, pooled) was obtained from Golden West Biololgicals Inc., USA; Plasma incubation was carried out in a Water Bath Shaker (New Brunswick Scientific, Inc.); Sample analyses were carried out on Agilent HPLC 1100 system.
Prepare 31.25 or 62.5 mM prodrug stock solutions in 100% DMSO. Add 4 μL of 31.25 or 62.5 mM prodrug stock solutions to 1.0 mL of plasma in a microcentrifuge tube to make plasma concentration at 125 or 250 μM, mix gently. Aliquots of 50 μL are transferred to 15 microcentrifuge vials. Three samples are immediately removed to a freezer at about −80° C. (0 time point), the remaining samples are incubated in a bath shaker at 37° C. Three samples are removed at 30 min, 2, 7 and 24 hr, and stored at −80° C. until analysis. The relative concentrations of MBX-compounds are determined by HPLC methods. If there are enough data points, the hydrolytic rate can be calculated using WinNonlin software. Table 10 provides a summary of plasma half-lives of some pro-drug esters and FIGS. 20A-20G illustrate the hydrolytic curves of those prodrug esters.

CN(C)C(=O)COC(=O)C(Oc1cccc(C(F)(F)F)c1)c1ccc(Cl)cc1 (racemic) [(±)Analog 38]
6 hours Glucose (C57BL/6J ob/ob mice; 125 mg/kg oral once a day): 303.2 ± 18.2 mg/dL
30 hours Glucose (C57BL/6J ob/ob mice; 125 mg/kg oral once a day): 245.6 ± 15.6 mg/dL
54 hours Glucose (C57BL/6J ob/ob mice; 125 mg/kg oral once a day): 243.1 ± 10.6 mg/dL
Predose Glucose (C57BL/6J ob/ob mice; 125 mg/kg group): 329.4 ± 18.9 mg/dL

CC(=O)OCCOC(=O)C(Oc1cccc(C(F)(F)F)c1)c1ccc(Cl)cc1 (single isomer, unassigned) [Compound 19.23]
half-life [1]: < 1 h

CCOC(=O)NCCOC(=O)C(Oc1cccc(C(F)(F)F)c1)c1ccc(Cl)cc1 (single isomer, unassigned; (-)) [Compound 19.9, (−)-2-ethoxycarbonylaminoethyl 4-chloro-alpha-(3-trifluoromethylphenoxy)benzeneacetate]
half-life [1]: < 1 h

NC(=O)COC(=O)C(Oc1cccc(C(F)(F)F)c1)c1ccc(Cl)cc1 (racemic) [(±)Analog 37]
6 hours Glucose (C57BL/6J ob/ob mice; 125 mg/kg oral once a day): 345.4 ± 19.7 mg/dL
30 hours Glucose (C57BL/6J ob/ob mice; 125 mg/kg oral once a day): 312.5 ± 21.7 mg/dL
54 hours Glucose (C57BL/6J ob/ob mice; 125 mg/kg oral once a day): 285.1 ± 14.7 mg/dL
time points with significantly lowered plasma glucose (C57BL/6J ob/ob mice; 125 mg/kg oral once a day): 54 h
Predose Glucose (C57BL/6J ob/ob mice; 125 mg/kg group): 387.4 ± 18.8 mg/dL

CN(C)C(=O)COC(=O)C(Oc1cccc(C(F)(F)F)c1)c1ccc(Cl)cc1 (single isomer, unassigned) [Compound 19.11]
half-life [1]: < 0.5 h

C#CCOC(=O)C(Oc1cccc(C(F)(F)F)c1)c1ccc(Cl)cc1 (single isomer, unassigned; (-)) [Compound 19.3, (−)-propargyl 4-chloro-alpha-(3-trifluoromethylphenoxy)benzeneacetate]
half-life [1]: < 1 h

O=C(OCC(=O)N1CCC1)C(Oc1cccc(C(F)(F)F)c1)c1ccc(Cl)cc1 (single isomer, unassigned) [Compound 19.13]
half-life [1]: < 0.5 h

O=C(OCc1ccccc1)C(Oc1cccc(C(F)(F)F)c1)c1ccc(Cl)cc1 (single isomer, unassigned; (-)) [Compound 19.6, (−)-benzyl 4-chloro-alpha-(3-trifluoromethylphenoxy)benzeneacetate]
half-life [1]: 6.3 h

CCNC(=O)NCCOC(=O)C(Oc1cccc(C(F)(F)F)c1)c1ccc(Cl)cc1 (single isomer, unassigned) [Compound 19.22]
half-life [1]: < 1 h

O=C(OCc1cccnc1)C(Oc1cccc(C(F)(F)F)c1)c1ccc(Cl)cc1 (single isomer, unassigned) [Compound 19.18]
half-life [1]: < 1 h

CC(=O)NCCOC(=O)C(Oc1cccc(C(F)(F)F)c1)c1ccc(F)cc1 (racemic) [(±)Analog 14]
6 hours Glucose (C57BL/6J ob/ob mice; 125 mg/kg oral once a day): 328.9 ± 34.1 mg/dL
30 hours Glucose (C57BL/6J ob/ob mice; 125 mg/kg oral once a day): 267.0 ± 21.3 mg/dL
54 hours Glucose (C57BL/6J ob/ob mice; 125 mg/kg oral once a day): 293.0 ± 29.4 mg/dL
Predose Glucose (C57BL/6J ob/ob mice; 125 mg/kg group): 361.0 ± 17.1 mg/dL

O=C(OCCO)C(Oc1cccc(C(F)(F)F)c1)c1ccc(Cl)cc1 (single isomer, unassigned) [Compound 19.14]
half-life [1]: < 2 h

O=C(NCCOC(=O)C(Oc1cccc(C(F)(F)F)c1)c1ccc(Cl)cc1)OCc1ccccc1 (single isomer, unassigned) [Compound 19.21]
half-life [1]: < 2 h

CCOC(=O)C(Oc1cccc(C(F)(F)F)c1)c1ccc(Cl)cc1 (single isomer, unassigned) [Compound 19.7]
half-life [1]: < 7 h

CC(=O)NCCOC(=O)C(Oc1cccc(C(F)(F)F)c1)c1ccc(Br)cc1 (racemic) [(±)Analog 29]
6 hours Glucose (C57BL/6J ob/ob mice; 125 mg/kg oral once a day): 299.7 ± 24.5 mg/dL
30 hours Glucose (C57BL/6J ob/ob mice; 125 mg/kg oral once a day): 237.4 ± 14.9 mg/dL
54 hours Glucose (C57BL/6J ob/ob mice; 125 mg/kg oral once a day): 293.3 ± 9.7 mg/dL
Predose Glucose (C57BL/6J ob/ob mice; 125 mg/kg group): 387.1 ± 16.0 mg/dL

Cc1oc(=O)oc1COC(=O)C(Oc1cccc(C(F)(F)F)c1)c1ccc(Cl)cc1 (single isomer, unassigned) [Compound 19.24]
half-life [1]: < 0.5 h

NC(=O)COC(=O)C(Oc1cccc(C(F)(F)F)c1)c1ccc(Cl)cc1 (single isomer, unassigned; (-)) [(−)Analog 37]
Predose Glucose (C57BL/6J ob/ob mice; 150 mg/kg group): 373.4 ± 16.1 mg/dL
6 hours Glucose (C57BL/6J ob/ob mice; single oral dose 150 mg/kg): 271.7 ± 22.5 mg/dL
time points with significantly reduced plasma glucose (C57BL/6J ob/ob mice; single oral dose 150 mg/kg): 6 h

CC(C)C(=O)NCCOC(=O)C(Oc1cccc(C(F)(F)F)c1)c1ccc(Cl)cc1 (single isomer, unassigned) [Compound 19.15]
half-life [1]: < 1 h

O=C(NCCOC(=O)C(Oc1cccc(C(F)(F)F)c1)c1ccc(Cl)cc1)c1ccccc1 (racemic) [(±)Analog 36]
6 hours Glucose (C57BL/6J ob/ob mice; 125 mg/kg oral once a day): 300.5 ± 27.3 mg/dL
30 hours Glucose (C57BL/6J ob/ob mice; 125 mg/kg oral once a day): 249.7 ± 8.6 mg/dL
54 hours Glucose (C57BL/6J ob/ob mice; 125 mg/kg oral once a day): 272.2 ± 18.4 mg/dL
Predose Glucose (C57BL/6J ob/ob mice; 125 mg/kg group): 329.7 ± 17.6 mg/dL

CS(=O)(=O)NCCOC(=O)C(Oc1cccc(C(F)(F)F)c1)c1ccc(Cl)cc1 (single isomer, unassigned) [Compound 19.10]
half-life [1]: < 1 h

O=C(NCCOC(=O)C(Oc1cccc(C(F)(F)F)c1)c1ccc(Cl)cc1)c1cccs1 (single isomer, unassigned) [Compound 19.2]
half-life [1]: < 1 h

O=C(NCCOC(=O)C(Oc1cccc(C(F)(F)F)c1)c1ccc(Cl)cc1)c1cccnc1 (single isomer, unassigned) [Compound 19.20]
half-life [1]: < 0.5 h

CCCCOC(=O)C(Oc1cccc(C(F)(F)F)c1)c1ccc(Cl)cc1 (racemic) [(±)Analog 33]
6 hours Glucose (C57BL/6J ob/ob mice; 125 mg/kg oral once a day): 227.5 ± 13.2 mg/dL
30 hours Glucose (C57BL/6J ob/ob mice; 125 mg/kg oral once a day): 298.0 ± 15.3 mg/dL
54 hours Glucose (C57BL/6J ob/ob mice; 125 mg/kg oral once a day): 286.6 ± 9.9 mg/dL
Predose Glucose (C57BL/6J ob/ob mice; 125 mg/kg group): 292.0 ± 19.1 mg/dL

CC(=O)NCCOC(=O)C(Oc1cccc(C(F)(F)F)c1)c1ccc(Br)cc1 (single isomer, unassigned; (-)) [(−)Analog 29]
Predose Glucose (C57BL/6J ob/ob mice; 150 mg/kg group): 372.2 ± 17.1 mg/dL
6 hours Glucose (C57BL/6J ob/ob mice; single oral dose 150 mg/kg): 333.5 ± 16.1 mg/dL
time points with significantly reduced plasma glucose (C57BL/6J ob/ob mice; single oral dose 150 mg/kg): 6 h

O=C(OCC(=O)N1CCOCC1)C(Oc1cccc(C(F)(F)F)c1)c1ccc(Cl)cc1 (single isomer, unassigned) [Compound 19.5]
half-life [1]: < 0.5 h

O=C(NCCOC(=O)C(Oc1cccc(C(F)(F)F)c1)c1ccc(Cl)cc1)c1ccccc1 (single isomer, unassigned) [Compound 19.4]
half-life [1]: < 1 h

COCC(=O)NCCOC(=O)C(Oc1cccc(C(F)(F)F)c1)c1ccc(Cl)cc1 (single isomer, unassigned) [Compound 19.17]
half-life [1]: < 1 h

O=C(NCCOC(=O)C(Oc1cccc(C(F)(F)F)c1)c1ccc(Cl)cc1)c1ccccc1 (single isomer, unassigned; (-)) [(−)Analog 36]
Predose Glucose (C57BL/6J ob/ob mice; 150 mg/kg group): 373.2 ± 15.5 mg/dL
6 hours Glucose (C57BL/6J ob/ob mice; single oral dose 150 mg/kg): 281.1 ± 18.2 mg/dL
time points with significantly reduced plasma glucose (C57BL/6J ob/ob mice; single oral dose 150 mg/kg): 6 h

C=CCOC(=O)C(Oc1cccc(C(F)(F)F)c1)c1ccc(Cl)cc1 (single isomer, unassigned) [Compound 19.1]
half-life [1]: 5.5 h

NC(=O)C1CCCN1C(=O)COC(=O)C(Oc1cccc(C(F)(F)F)c1)c1ccc(Cl)cc1 (single isomer, unassigned) [Compound 19.16]
half-life [1]: < 0.5 h

NCC(=O)OCCOC(=O)C(Oc1cccc(C(F)(F)F)c1)c1ccc(Cl)cc1 (single isomer, unassigned) [Compound 19.28]
half-life [1]: < 0.5 h

CN(C)C(=O)COC(=O)C(Oc1cccc(C(F)(F)F)c1)c1ccc(Cl)cc1 (single isomer, unassigned; (-)) [(−)Analog 38]
Predose Glucose (C57BL/6J ob/ob mice; 150 mg/kg group): 373.4 ± 16.1 mg/dL
6 hours Glucose (C57BL/6J ob/ob mice; single oral dose 150 mg/kg): 251.2 ± 23.6 mg/dL
time points with significantly reduced plasma glucose (C57BL/6J ob/ob mice; single oral dose 150 mg/kg): 6 h

COCCOC(=O)C(Oc1cccc(C(F)(F)F)c1)c1ccc(Cl)cc1 (single isomer, unassigned; (-)) [Compound 19.8, (−)-2-methoxyethyl 4-chloro-alpha-(3-trifluoromethylphenoxy)benzeneacetate]
half-life [1]: < 2 h

CC(OC(=O)OC1CCCCC1)OC(=O)C(Oc1cccc(C(F)(F)F)c1)c1ccc(Cl)cc1 (single isomer, unassigned; (-)) [Compound 19.27, (−)-1-(cyclohexyloxycarbonyloxy)ethyl 4-chloro-alpha-(3-trifluoromethylphenoxy)benzeneacetate]
half-life [1]: < 1 h

COC(=O)C1CCCN1C(=O)COC(=O)C(Oc1cccc(C(F)(F)F)c1)c1ccc(Cl)cc1 (single isomer, unassigned) [Compound 19.19]
half-life [1]: < 0.5 h

CCOC(=O)COC(=O)C(Oc1cccc(C(F)(F)F)c1)c1ccc(Cl)cc1 (single isomer, unassigned) [Compound 19.12]
half-life [1]: < 0.5 h

O=C(NCCOC(=O)C(Oc1cccc(C(F)(F)F)c1)c1ccc(Cl)cc1)c1ccncc1 (single isomer, unassigned) [Compound 19.26]
half-life [1]: < 1 h
